How the values were obtained:
His6-NdmD = His6-NdmD (Pseudomonas putida, UniProt H9N291); experiment: N-demethylation by purified His6-NdmD alone; type: biochemical, Pseudomonas putida CBB5
Method: (§1) Methylxanthine N-demethylase activity assay contained, in 1-ml total volume, 0.5 mM methylxanthine, 1 mM NADH, 50 μM Fe(NH4)2(SO4)2, and an appropriate amount of NdmA-His6 or NdmB-His6 (7.4 μg-2.5 mg protein depending on substrate specificity) in 50 mM KPi buffer (pH 7.5). Approximately 4 U of partially purified reductase, prepared as described previously (Summers et al., 2011) or 59 U of purified His6-NdmD was added to reaction mixture. Catalase from bovine liver (4,000 U) was also added to reactions containing His6-NdmD. The reaction mixture was incubated at 30° C. with 300 rpm shaking on an incubating microplate shaker (VWR, Radnor, Pa.). Periodically, a small aliquot was sampled from the reaction mixture and mixed with equal volume of acetonitrile for quantifying concentrations of methylxanthines and N-demethylated products by HPLC. One unit of N-demethylase activity was defined as the consumption of one […] methylxanthine per minute.

[1] = test system: Ndm (methylxanthine N-demethylase) with Ccr reductase
NdmA-His6 = target: T1, NdmA-His6 (Pseudomonas putida, UniProt H9N289); experiment: Kinetic parameters of NdmA-His6 with His6-NdmD; type: biochemical, Pseudomonas putida CBB5
T1 sequence (H9N289 1-351): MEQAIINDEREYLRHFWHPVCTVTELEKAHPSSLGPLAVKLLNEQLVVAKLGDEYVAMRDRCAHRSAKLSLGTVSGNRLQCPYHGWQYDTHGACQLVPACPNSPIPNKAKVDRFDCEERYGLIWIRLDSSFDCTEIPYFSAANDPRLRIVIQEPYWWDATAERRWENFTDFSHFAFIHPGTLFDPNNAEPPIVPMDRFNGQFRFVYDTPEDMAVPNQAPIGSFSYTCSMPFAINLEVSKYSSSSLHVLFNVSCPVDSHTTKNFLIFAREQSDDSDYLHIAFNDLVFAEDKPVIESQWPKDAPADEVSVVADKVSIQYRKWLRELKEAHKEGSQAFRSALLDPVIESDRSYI
Method: as §1
(§2) Apparent kinetic parameters of NdmA-His6 and NdmB-His6 were determined by measuring the initial rate of disappearance (vo) of methylxanthines in 50 mM KPi buffer (pH 7.5) at 30° C. The initial substrate concentrations ([S]) used in these experiments were from 25 to 500 μM. Substrates were incubated with His6-NdmD plus either NdmA-His6 or NdmB-His6 under standard conditions for 15 minutes. At 1, 5, 10, and 15 minutes, samples were removed from the reaction mixtures to quantitate substrate concentrations by HPLC. Plots of substrate concentrations against time were used to determine the initial rates of disappearance of substrates which were linear over 15 minutes. The apparent kinetic parameters were determined from Michaelis-Menten plots of vo against [S] fitted with the equation

NdmB-His6 = NdmB-His6 (Pseudomonas putida, UniProt H9N290); experiment: Kinetic parameters of NdmB-His6 with His6-NdmD; type: biochemical, Pseudomonas putida CBB5
Method: as §1, §2

NdmC = experiment: N-demethylation by NdmC fraction co-purified with reductase; type: biochemical, Pseudomonas putida CBB5
Description: This activity was neither associated with NdmA nor with NdmB. […] Cloning of NdmC has proven difficult; nevertheless based on the fact that purified His6-NdmD had no activity on 7-methylxanthine, we annotate orf 8 as aanother RO with highly specific N-7 demthylase activity.

[2] = target: T2, Ndm, two-subunit N-demethylase component purified from Pseudomonas putida CBB5 (UniProt H9N289)
T2 sequence 1: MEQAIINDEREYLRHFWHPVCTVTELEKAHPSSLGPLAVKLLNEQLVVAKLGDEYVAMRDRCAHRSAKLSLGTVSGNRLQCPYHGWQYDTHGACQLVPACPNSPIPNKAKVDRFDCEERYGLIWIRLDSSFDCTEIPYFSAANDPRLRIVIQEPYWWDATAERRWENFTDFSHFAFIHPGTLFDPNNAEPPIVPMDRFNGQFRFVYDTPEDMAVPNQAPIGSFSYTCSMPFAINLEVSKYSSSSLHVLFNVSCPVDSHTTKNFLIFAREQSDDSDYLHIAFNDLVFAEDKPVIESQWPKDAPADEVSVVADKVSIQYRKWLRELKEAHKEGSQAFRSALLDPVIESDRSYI
T2 sequence 2: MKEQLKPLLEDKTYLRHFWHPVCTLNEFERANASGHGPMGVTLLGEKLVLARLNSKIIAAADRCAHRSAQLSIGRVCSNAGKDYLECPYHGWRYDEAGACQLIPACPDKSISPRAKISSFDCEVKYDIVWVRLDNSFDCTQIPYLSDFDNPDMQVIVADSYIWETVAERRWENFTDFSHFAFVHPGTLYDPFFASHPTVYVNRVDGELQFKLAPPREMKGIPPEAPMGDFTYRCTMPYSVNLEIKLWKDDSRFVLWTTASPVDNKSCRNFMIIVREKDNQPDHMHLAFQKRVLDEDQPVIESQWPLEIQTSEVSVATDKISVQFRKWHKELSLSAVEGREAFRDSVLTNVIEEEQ

Ccr = Ccr (Pseudomonas putida, UniProt H9N291); experiment: NAD(P)H:cytochrome c oxidoreductase (Ccr) activity; type: biochemical, Pseudomonas putida CBB5
Method: NADH:cytochrome c oxidoreductase (cytochrome c reductase, Ccr) activity was determined as described by Ueda et al. (1972). A typical 1-mL reaction contained 300 μM NADH, 87 μM bovine cytochrome c (type III; Sigma), and 1-20 μg CBB5 protein (depending on purity) in 50 mM KPi buffer. The activity was determined by monitoring the increase in absorbance at 550 nm due to reduction of […] cytochrome c at 30° C. An extinction coefficient of 21,000 M^−1 cm^−1 for reduced minus oxidized cytochrome c was used for quantitating the activity. One unit of activity was defined as one μmol of cytochrome c reduced per minute.

NdmA-His6, H9N289 = target: T3, NdmA-His6, H9N289
T3 chain: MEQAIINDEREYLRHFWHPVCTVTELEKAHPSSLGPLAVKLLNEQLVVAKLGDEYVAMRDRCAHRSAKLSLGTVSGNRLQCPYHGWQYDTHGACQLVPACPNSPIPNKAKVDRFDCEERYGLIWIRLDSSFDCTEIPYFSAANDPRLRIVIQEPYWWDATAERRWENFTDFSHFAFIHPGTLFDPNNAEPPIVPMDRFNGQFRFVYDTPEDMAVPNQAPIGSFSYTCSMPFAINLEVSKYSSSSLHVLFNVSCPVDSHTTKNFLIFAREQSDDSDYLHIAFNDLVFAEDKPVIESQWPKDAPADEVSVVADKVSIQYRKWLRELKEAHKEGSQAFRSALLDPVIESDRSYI

NdmB-His6, H9N290 = target: T4, NdmB-His6, H9N290
T4 chain: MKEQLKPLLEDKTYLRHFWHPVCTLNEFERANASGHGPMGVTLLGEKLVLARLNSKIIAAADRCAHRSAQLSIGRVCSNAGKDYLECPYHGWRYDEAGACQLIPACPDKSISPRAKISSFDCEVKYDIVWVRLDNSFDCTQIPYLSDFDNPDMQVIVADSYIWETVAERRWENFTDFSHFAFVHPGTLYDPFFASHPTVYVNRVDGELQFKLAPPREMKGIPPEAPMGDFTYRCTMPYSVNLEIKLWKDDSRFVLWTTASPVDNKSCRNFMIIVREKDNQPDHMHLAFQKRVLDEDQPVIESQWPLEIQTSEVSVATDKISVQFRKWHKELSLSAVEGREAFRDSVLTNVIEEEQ

[3] = substrate: Cn1c(=O)c2[nH]cnc2n(C)c1=O; experiment: Kinetic parameters of NdmA-His6 with His6-NdmD; type: biochemical, Pseudomonas putida CBB5; conditions: other: NdmA-His6 plus His6-NdmD, pH 7.5, 30° C.
Method: as §1
Apparent kinetic parameters of NdmA-His6 and NdmB-His6 were determined by measuring the initial rate of disappearance (vo) of methylxanthines in 50 mM KPi buffer (pH 7.5) at 30° C. […] At 1, 5, 10, and 15 minutes, samples were removed from the reaction mixtures to quantitate substrate concentrations by HPLC. […] The apparent kinetic parameters were determined from Michaelis-Menten plots of vo against [S] fitted with the equation

[4] = target: T5, NdmB, 35 kDa subunit of N-demethylase Ndm purified from Pseudomonas putida CBB5 (Pseudomonas putida CBB5, UniProt H9N290 1-355); experiment: gel filtration of purified native Ndm (single symmetric peak, about 240 kDa), fractions checked by SDS-PAGE
T5 construct: Native protein purified from CBB5; Rieske [2Fe-2S] non-heme iron oxygenase; also called 35 kDa-protein
T5 sequence (looked up): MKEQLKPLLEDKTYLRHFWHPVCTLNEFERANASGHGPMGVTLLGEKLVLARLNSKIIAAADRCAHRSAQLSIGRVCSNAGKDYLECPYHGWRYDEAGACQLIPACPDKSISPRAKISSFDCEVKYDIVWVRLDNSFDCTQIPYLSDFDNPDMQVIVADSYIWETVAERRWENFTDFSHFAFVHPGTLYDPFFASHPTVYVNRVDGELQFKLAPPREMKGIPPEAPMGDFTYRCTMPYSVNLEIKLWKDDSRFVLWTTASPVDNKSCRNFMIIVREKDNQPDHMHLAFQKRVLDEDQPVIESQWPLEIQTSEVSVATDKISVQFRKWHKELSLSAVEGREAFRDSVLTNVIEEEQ

`Cn1cnc2[nH]c(=O)[nH]c(=O)c21` [7-Methylxanthine, 7-methylxanthine] was tested, and the “activity of purified His6-NdmD” value (His6-NdmD) was “no activity”, the “product formed from paraxanthine” value ([1]; 90 minutes, 7.4 mU (7.4 units) of Ndm) was 126.9 ± 6.4 µM and the N-demethylation product present ([1]; from paraxanthine, after 13 minutes) was “Approximately 39.9 μM”. The Km ([1]; read-out: apparent KM, saturating Ccr, 50 μM Fe2+, 30° C., 50 mM KPi pH 7.5) was 63.8 ± 7.5 µM, the apparent kcat ([1]; saturating Ccr, 50 μM Fe2+, 30° C., 50 mM KPi pH 7.5) was 1.58 ± 0.05 s⁻¹ and the “N-demethylation activity of NdmA” value (NdmA-His6) was “inactive”. For the same molecule, the Km (NdmA-His6; NdmA-His6 plus His6-NdmD, pH 7.5, 30° C.) was “∞”, the “N-demethylation activity of NdmB” value (NdmB-His6) was “no activity” and the Km (NdmB-His6; NdmB-His6 plus His6-NdmD, pH 7.5, 30° C.) was “∞”. For the same molecule, the “N-demethylation by NdmC/reductase fraction” value (NdmC) was “specifically N-demethylated”.

With “Ccr, partially purified cytochrome c reductase component of Pseudomonas putida CBB5” the N-demethylase activity [2] was “No N-demethylase activity was observed when purified Ndm was assayed without the Ccr fraction”.

For `NC(=O)C1=CN([C@@H]2O[C@H](COP(=O)(O)OP(=O)(O)OC[C@H]3O[C@@H](n4cnc5c(N)ncnc54)[C@H](OP(=O)(O)O)[C@@H]3O)[C@@H](O)[C@H]2O)C=CC1` [NADPH], the “Ccr activity relative to that with NADH” value (Ccr) was 22%.

B1: His6-NdmD (protein)
chain: HHHHHHSSGLVPRGSHMNKLDVNQWFPIATTEDLPKRHVFHATLLGQEMAIWRDDSGSVNAWENRCPHRGLRLTLGANTGNELRCQYHGWTYESGTGGCTFVPAHRDAPPPNAARVNTFPVREKHGFIWTTLGQPPGEPISILDDAQLVNAVKTNLHSVVIDADIDGVVSVLRQNLSAFIDVFGAASAEDLHLKSMLQDRGILVTRSGSIAIHFYMQRSTISKCVVHAQVLTPGRPGYELQKNYSYAMNVIRRAAEAVATDLISITDISDQTIEKLEVVRENMTKAPPTHYICEVVTRTQETGDINSYWLKPIGYPLPAFSPGMHISITTPEGSIRQYSLVNGPDERESFIIGVKKEIQSRGGSRSMHEDVKVGTQLKVTLPRNGFPLVQTRKHPILVAGGIGITPILCMAQALDQQGSSYEIHYFARAFEHVPFQDRLTALGDRLNVHLGLGPDETRAKLPDIMEIHNAQDVDVYTCGPQPMIETVSAVALAHGIAEESIRFEFFSKKNDVPVSDEEYEVELKKTGQIFTVSPGSTLLQACLDNDVRIEASCEQGVCGTCITPVVSGDLEHHDTYLSKKERESGKWIMPCVSRCKSKKIVLDL
In the case of B1, the “N-demethylation of caffeine to theobromine (HPLC)” value (NdmA-His6, H9N289) is reported as “when NdmA-His6 was incubated with His6-NdmD, caffeine, NADH, and exogenous Fe^2+, caffeine was stoichiometrically demethylated at N1 to theobromine” and the “N-demethylation of theobromine to 7-methylxanthine (HPLC)” value (NdmB-His6, H9N290) is reported as “NdmB-His6 with His6-NdmD, theobromine, NADH, and Fe^2+ resulted in stoichiometric demethylation at N3 of theobromine to 7-methylxanthine”.

B2: NdmA, 40 kDa subunit of N-demethylase Ndm purified from Pseudomonas putida CBB5 (enzyme, UniProt H9N289 1-351, looked up)
chain: MEQAIINDEREYLRHFWHPVCTVTELEKAHPSSLGPLAVKLLNEQLVVAKLGDEYVAMRDRCAHRSAKLSLGTVSGNRLQCPYHGWQYDTHGACQLVPACPNSPIPNKAKVDRFDCEERYGLIWIRLDSSFDCTEIPYFSAANDPRLRIVIQEPYWWDATAERRWENFTDFSHFAFIHPGTLFDPNNAEPPIVPMDRFNGQFRFVYDTPEDMAVPNQAPIGSFSYTCSMPFAINLEVSKYSSSSLHVLFNVSCPVDSHTTKNFLIFAREQSDDSDYLHIAFNDLVFAEDKPVIESQWPKDAPADEVSVVADKVSIQYRKWLRELKEAHKEGSQAFRSALLDPVIESDRSYI
notes: Native protein purified from CBB5; Rieske [2Fe-2S] non-heme iron oxygenase; also called 40 kDa-protein
For B2, the Km [3] was 91. μM and the binding result [4] was “binds”.
